{"source": "paper PMC6986439", "about": "“Sultiame pharmacokinetic profile in plasma and erythrocytes after single oral doses: A pilot study in healthy volunteers” (Pharmacology Research & Perspectives, 2020)", "key": {"[1]": {"experiment": "Population PK compartmental analysis (two-compartment model with saturable ligand to receptor binding)", "format": "in vivo, human", "procedure": "A population PK analysis was also performed using a nonlinear mixed‐effect modeling approach (NONMEM version 7.4, ICON Development Solutions, Hanover MD, USA). […] The model was expressed in terms of differential equations and first‐order rate constants of absorption (ka), elimination (ke), association with (kon) and dissociation from (koff) receptors, maximal binding capacity (Btot), apparent central volume of distribution (Vc/F), and erythrocytes’ volume of distribution (Very). Note that Very actually encompasses the volume of all types of cells containing receptors, assumed to tally with the sampled erythrocytes. Plasma protein binding was assumed constant over the whole range of observed concentrations. Renal extraction fraction (Qren) was added to characterize urine excretion with an additional compartment for urine data. Values of kon and koff characterized in vitro at different temperatures were used as initial estimates and the value of kon to 2018 µM^−1 h^−1 at 37°C fixed in the in vivo model. F was not evaluated, making the model estimate apparent values for Vc/F and CL/F. The first‐order elimination rate constant from the central compartment was calculated as ke = (CL/F)/(Vc/F). The first value below the LLOQ was equaled to LLOQ/2 and subsequent nonquantifiable values were discarded (M6 method).12 Details concerning differential equations and model building steps and adjustment are available in Supplemental material.\nFigure 1 Compartmental model accounting for nonlinearity of distribution. Aa, amount of sultiame at the absorption site; Ap, amount of sultiame in plasma and central compartment; Vc, central volume of distribution; Aery, amount of sultiame in the cells, assumed to be bound to receptors; Very, cellular volume of distribution; ka, absorption rate constant; ke, elimination rate constant; kon, constant of association onto receptors binding sites; koff, constant of dissociation from the binding site; Bbound, amount of occupied receptors, assumed equal to Aery; Bfree, amount of free binding sites; Btot, sultiame maximal binding capacity (mg); Qren, renal fraction of the elimination rate; Foral, oral bioavailability, assumed equal to 1\nA stepwise procedure was used to identify the model that best fitted the data, comparing two‐, three‐, and four‐compartmental models (peripheral or separate intracellular compartments for free and bound sultiame), and other nonlinear models (Bmax sigmoid model). Exponential errors were used for the description of between‐subject variability (BSV) of PK parameters. Proportional, additive, and mixed error models were compared to describe the residual variability. The stability and internal validity of the final model were assessed by means of standard procedures, detailed in Supplemental material. Covariates were not analyzed due to the limited number of subjects included.\nOur population PK analysis used a non-linear mixed effect two-compartment model with first-order absorption incorporating a saturable ligand to receptor binding. We fitted it to our data with the NONMEM software (version 7.4, ICON Development Solutions, Hanover MD, USA), using the ADVAN13 subroutine.\nNotice that Aery simultaneously expresses the amount of binding sites occupied by sultiame (Bbound). Thus, the amount of free binding sites corresponds to Bfree = (Btot – Aery), and the model only needs the parameter Btot to characterize the size of the saturable compartment associated to receptor binding (in mg of sultiame). The values of kon and koff characterized in vitro at 37°C were used in the in vivo model as initial estimates, and the kon was fixed to 2018 µM^-1· h^-1.\nThe model was fitted to the data using first order conditional estimation (FOCE) to obtain values for the eight model parameters listed above. […]"}, "erythrocytes": {"tested_on": "erythrocytes", "experiment": "In vitro spiking experiment: sultiame exchanges between plasma and erythrocytes", "format": "in vitro ADME, human", "procedure": "A spiking experiment was performed to better characterize sultiame exchanges between plasma and erythrocytes. The influx into cells was investigated through spiking fresh human whole blood on EDTA at different target concentrations (1, 5, 10, 20, 40, and 80 mg/L) and different temperatures (4, 21, and 37°C), followed by sampling at 0, 2, 4, 6, 8, 10, 15, 30, 60, 120, and 180 min. The efflux was investigated through incubating whole blood for 1 h at 2 concentrations (10 and 40 mg/L) at 37°C, centrifugating and briefly washing the erythrocytes with NaCl 0.9%, and letting them equilibrate with fresh plasma while drawing samples at 0, 2, 4, 6, 8, 10, 15, 30, 60, 120, 180 minutes, and 24 hours.\nIn addition, competition studies were performed with two other antiepileptic agents known for their affinity for CA (zonisamide and topiramate), added at equimolar concentration to 20 mg/L of sultiame. Similar ranges of inhibition constants for CA II were reported in the literature for these three substances.13 Samples (1 mL) were drawn before and at 2, 4, 6, 8, 10, 15, 20, 30, 45, 60, and 120 min after addition of the competitor. Sultiame, zonisamide, and topiramate concentrations were then analyzed. All samples were centrifuged at 18 620 g for 1 minutes at 4°C. Plasma, erythrocyte, and urine fractions were stored separately at − 80°C prior to analysis for a maximum of 9 months. For analysis, plasma and hemolyzed erythrocytes samples were subjected to protein precipitation with MeOH containing the internal‐standard sultiame D4 and quantified with the previously described HPLC‐MS/MS method, using matrix‐matched calibration and quality controls. The sultiame concentrations determined in erythrocytes were corrected for the 10% interstitial plasma remnant in the erythrocyte fraction after centrifugation.14"}, "[2]": {"conditions": "population estimate of final model"}, "[3]": {"conditions": "37 °C, deduced using Arrhenius' law"}}, "note": "“And” between values parts separate entries of the source, which are not always exact repeats. Equal values may be shown once. Read-outs that look alike come from different tables or passages of the source."}
{"smiles": "NS(=O)(=O)c1ccc(N2CCCCS2(=O)=O)cc1", "note": "[Sultiame]", "values": [{"measurement": "Btot", "setting": "[1]; bootstrap evaluation, median", "result": 111, "unit": "mg"}, {"measurement": "QRen", "setting": "[1]; bootstrap evaluation, median", "result": 28.8, "unit": "%"}, {"measurement": "Vc", "setting": "[1]; bootstrap evaluation, median", "result": 64.8, "unit": "L"}, {"measurement": "Very", "setting": "[1]; bootstrap evaluation, median", "result": 3.27, "unit": "L"}, {"measurement": "ka", "setting": "[1]; bootstrap evaluation, median", "result": 1.88, "unit": "h⁻¹"}, {"measurement": "koff", "setting": "[1]; bootstrap evaluation, median", "result": 2.244, "unit": "s⁻¹"}, {"measurement": "kon", "setting": "[1]; bootstrap evaluation, median, fixed", "result": 560600, "unit": "M⁻¹ s⁻¹"}, {"measurement": "Kd", "setting": "[1]; final population model, read-out: estimated kD of final model (koff/kon)", "result": 4, "unit": "µM"}, {"measurement": "Vd", "setting": "[1]; male, human, erythrocytes, oral, population estimate of final model, read-out: Very, cell (erythrocyte compartment) volume of distribution", "result": 3.3, "unit": "L"}, {"measurement": "Vd", "setting": "[1]; male, human, plasma, oral, population estimate of final model, read-out: Vc, central volume of distribution", "result": 64.8, "unit": "L"}, {"measurement": "clearance", "setting": "[1]; male, human, plasma, oral, bootstrap evaluation, median of 2000 replicates, read-out: CLplasma (converted)", "result": 166, "unit": "mL/min"}, {"measurement": "kon, association constant", "setting": "[1]; not estimated but fixed in the in vivo model to the in vitro value at 37°C", "result": 560600, "unit": "M⁻¹ s⁻¹"}, {"measurement": "Btot, maximal binding capacity", "setting": "[1]; [2]", "result": 111, "unit": "mg"}, {"measurement": "QRen, fraction eliminated by renal route", "setting": "[1]; [2]", "result": 28.8, "unit": "%"}, {"measurement": "Very, cell (erythrocyte compartment) volume of distribution", "setting": "[1]; [2]", "result": 3.27, "unit": "L"}, {"measurement": "ka, constant of absorption", "setting": "[1]; [2]", "result": 1.88, "unit": "h⁻¹"}, {"measurement": "koff, dissociation constant", "setting": "[1]; [2]", "result": 2.244, "unit": "s⁻¹"}, {"measurement": "CLplasma, apparent plasma clearance (CL/F)", "setting": "[1]; population estimate of final model, oral 50, 100, 200 mg", "result": "10.0 L/h and 9.95 L/h"}, {"measurement": "koff", "setting": "erythrocytes; [3]", "result": 0.0486, "unit": "s⁻¹"}, {"measurement": "kon", "setting": "erythrocytes; [3]", "result": 560600, "unit": "M⁻¹ s⁻¹"}, {"measurement": "erythrocyte/plasma ratio", "setting": "erythrocytes; concentrations of 10 mg/L or less", "result": 800}, {"measurement": "erythrocyte/plasma ratio", "setting": "erythrocytes; concentrations of 20 mg/L and above", "result": "less than 30"}, {"measurement": "efflux from incubated erythrocytes into blank plasma", "setting": "erythrocytes; erythrocytes incubated 1 h at 10 and 40 mg/L, 37°C, data not shown", "result": "only minute amounts"}, {"measurement": "in vitro binding capacity", "setting": "erythrocytes; in vitro evaluation", "result": "exceeding 20 mg per liter of whole blood"}, {"measurement": "whole blood concentration at which saturation of erythrocytes occurs", "setting": "erythrocytes; in vitro spiking", "result": "~20", "unit": "mg/L"}, {"measurement": "time to steady state of erythrocyte/plasma ratio", "setting": "erythrocytes; spiked fresh human whole blood", "result": "about 10 minutes"}]}
